System: T1, MpIspS
T1 construct: gene IspS
Conditions: 50 mM MOPS pH 6.0, 5 mM Mn^2+, 50 °C, 10 min; fit below 15 mM DMAPP

Km: 8.11 mM
Structure (SMILES): CC(C)=CCOP(=O)(O)OP(=O)(O)O [DMAPP]
